Data on one molecule can be found in patent US20120316158A1, “OPHTHALMIC SOLUTION FOR TREATING OCULAR INFECTION COMPRISING LEVOFLOXACIN OR SALT THEREOF OR SOLVATE OF THE SAME, METHOD FOR TREATING OCULAR INFECTION, LEVOFLOXACIN OR SALT THEREOF OR SOLVATE OF THE SAME, AND USE THEREOF” (priority 2010, published 2012).

Assay [1] relates to methicillin-sensitive Staphylococcus aureus. The conditions noted are these: isolates from a patient suffering from bacterial keratitis; cited from earlier work.
For assay [2], the system named is MSSA. The assay is described as follows: MIC of clinical isolate from a patient suffering from an external ocular infection. Format: cell-based. To be noted: Staphylococcus aureus; MSSA clinical isolate from a patient with an external ocular infection. The protocol: MSSA (MIC=0.5 μg/mL with respect to levofloxacin) was isolated from a patient suffering from an external ocular infection.

In the case of `C[C@H]1COc2c(N3CCN(C)CC3)c(F)cc3c(=O)c(C(=O)O)cn1c23` [levofloxacin, Levofloxacin], the “clinically isolated MSSA resistant to levofloxacin” value in assay [1] is on record as “about 10%”. In addition, in assay [2], the MIC was 0.5 µg/mL.
